Measured values published in US20090069418A1, “Compositions and Methods for the Treatment of Disorders Associated with Aberrant Vasodilation” (priority 2007, published 2009).

Key:
[1] = Pharmacokinetics of AUDA-BE and its metabolites in plasma after single intraperitoneal injection; assay type: in vivo, C57Bl/6 mice
Procedure: A second set of animals was injected with sesame oil alone (vehicle). […] (2002) Biochem. Pharmacol., 63:1599-608; Watanabe et al. (2006) Anal. Chim. Acta., 559:37-44). Briefly, blood samples (10 μL) were collected in 1.5 mL Eppendorf microcentrifuge tubes, weighed, and vortexed with 100 μL of purified water. […] Aliquots (10 μL) were analyzed by liquid chromatography coupled mass spectroscopy LC-MS/MS (Watanabe et al. (2006) Anal. Chim. Acta., 559:37-44; Watanabe and Hammock (2001) Anal. Biochem., 299:227-34). The concentration of sEH inhibitors were quantified in extracts using HPLC with positive mode electrospray ionization and tandem mass spectrometry. Analytes were quantified on a 5-point curve with internal standard methods. Surrogate recoveries were evaluated by quantification against the internal standard. Surrogate recoveries were 70% for all reported plasma samples, the analysis of reagent blanks, matrix spikes, and analytical replicates were used to document method stability during this study. […] Differences in infarct size, enzyme activity, and blood flow rates were analyzed with a t-test for two groups and analysis of variance with post hoc Newman-Keuls multiple range test for multiple groups. The pharmacokinetic profile was examined for goodness of fit to a noncompartmental or multicompartmental models. Pharmacokinetic parameters were then obtained by fitting the blood-concentration-time data to a non-compartmental model with the WinNonlin software (Pharsight, Mountain View, Calif., USA), as described previously (Watanabe et al. (2006) Anal. Chim. Acta., 559:37-44). The criterion for statistical significance was set at P<0.05. All values are reported as mean±s.e.m.

epoxide hydrolase = test: Hydrolase activity in brain tissue ex vivo, conversion of 14,15-EET to 14,15-DHET (ELISA); assay type: biochemical, mouse; settings: both WT and KO brain tissue
Procedure: Total 14,15-DHET in blood was measured with a commercial ELISA (Detroit R&D, Inc, Detroit, Mich.) (Koerner et al. (2007) J. Neurosci., 27:4642-4649). Briefly, plasma lipids were extracted 3 times with ethyl acetate under acidic conditions (pH 3 to 4), followed by saponification with 20% KOH. Samples were dried and resuspended in methanol, and 14,15-DHET concentration was measured according to the manufacturer's instructions. The ELISA was also used to measure hydrolase activity in brain tissue (perfused to remove blood) incubated with 1 μM 14,15-EET for 30 minutes. Brian tissue was homogenized in 4 volumes of ice-cold buffer (20 mmol/L Tris HCL pH 7.4, 0.32 mol/L sucrose, 1 mmol/L EDTA), centrifuged at 1000 g for 10 minutes, and supernatant was further centrifuged at 10,000 g for 20 minutes.

[2] = biological target: T1, soluble epoxide hydrolase (Mus musculus, UniProt P34914); test: Soluble epoxide hydrolase activity assay in brain after systemic AUDA-BE ([3H]-tDPPO substrate); assay type: in vivo
T1 construct: from tissue; host or cells: mouse brain (C57Bl/6), cytosolic or peroxisomal fractions
T1 sequence (P34914 1-554): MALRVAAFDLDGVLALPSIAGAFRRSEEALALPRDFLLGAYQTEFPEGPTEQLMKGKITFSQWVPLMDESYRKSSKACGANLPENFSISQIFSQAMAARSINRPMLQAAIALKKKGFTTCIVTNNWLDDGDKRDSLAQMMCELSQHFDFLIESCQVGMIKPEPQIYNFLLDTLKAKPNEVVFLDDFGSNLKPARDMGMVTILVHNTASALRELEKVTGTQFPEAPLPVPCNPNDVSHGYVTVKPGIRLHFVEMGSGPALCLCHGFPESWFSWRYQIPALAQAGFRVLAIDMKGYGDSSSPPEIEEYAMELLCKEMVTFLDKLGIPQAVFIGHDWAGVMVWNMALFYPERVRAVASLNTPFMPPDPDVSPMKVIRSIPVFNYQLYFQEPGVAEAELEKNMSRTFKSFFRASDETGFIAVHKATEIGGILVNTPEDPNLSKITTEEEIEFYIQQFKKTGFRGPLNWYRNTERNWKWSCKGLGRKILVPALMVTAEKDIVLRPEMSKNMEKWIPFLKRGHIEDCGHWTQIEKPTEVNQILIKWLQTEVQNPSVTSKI
Procedure: Rate of hydration of tDPPO is determined by liquid scintillation spectroscopy after differential extraction of the epoxide and diol. Briefly, cytosolic or peroxisomal fractions were incubated at 37° C. in 100 μL incubation mixtures containing sodium phosphate buffer (90 mmol/L, pH 7.4) and tDPPO (1 to 50 μmol/L in 1 μL dimethylformamide). Incubations were stopped after 5 minutes with the addition of 60 μL methanol and 200 μL isooctane. Zero-time and zero-protein incubations served as blanks. Incubations were vortexed vigorously to extract the substrate into the isooctane (the diol metabolite remains in the aqueous phase). A known aliquot of the aqueous phase was removed and added to 1 mL scintillation cocktail for scintillation counting. Extraction efficiency exceeded 91%.
It should be noted that these sEH inhibitors are reversible transition state inhibitors. Thus, the levels of inhibition are certain to be above those detected due to dilution of the sample during work up.

C57Bl/6 mice = test: Middle cerebral artery occlusion in mice, infarct size (Example 2); assay type: in vivo; settings: for infarct size after 2-hour MCAO: vehicle 33±2%; for reduction of infarct size compared with vehicle: 10 mg/kg
Procedure: (2001) J. Neurosci., 21:7543-50). […] A small laser-Doppler probe was affixed to the skull to monitor cortical perfusion and verify vascular occlusion and reperfusion. […] After securing the filament in place, the surgical site was closed, and the animal was awakened and assessed at 2 hours of occlusion for neurological deficit using a simple neurological scoring system as follows: 0=no deficit, 1=failure to extend forelimb, 2=circling, 3=unilateral weakness, 4=no spontaneous motor activity. Mice with clear neurological deficit were re-anesthetized, laser-Doppler probe re-positioned over same site on the skull, and the occluding filament was withdrawn to allow for reperfusion. Mice were then allowed to recover and observed for 1 day. […] Slices were photographed, and infarcted (unstained) and uninfarcted (red color) areas were measured with MCID software (InterFocus Imaging Ltd, Linton, UK) and integrated across all five slices. To account for the effect of edema, the infarcted area was estimated indirectly by subtracting the uninfarcted area in the ipsilateral hemisphere from the contralateral hemisphere, and expressing infarct volume as a percentage of contralateral hemisphere. […] (2000) J. Physiol. Pharmacol., 51:655-72). […] Animals were randomly assigned to treatment groups.

[3] = AUDA-BE and its metabolites measured in brain tissue; assay type: in vivo, mice
From the text: This concentration was also biologically effective in lowering blood pressure in hypertensive model (Imig et al. (2005) Hypertension 46:975-81). Therefore, in these experiments, the levels of sEH inhibitors in the blood are in the concentration range expected to inhibit the enzyme.

- maximum concentration in plasma ([1]; AUDA-BE 40 mg/kg intraperitoneal, within the first hour): 2 µmol/L
- metabolism of 14,15-EET to 14,15-DHET in brain tissue (epoxide hydrolase): inhibited
- average brain sEH activity over 24 hours ([2]; AUDA-BE 10 mg/kg intraperitoneally, 1, 3, 6 and 24 hours, vehicle 1.92±0.06 nmol/mg): 1.56±0.13 nmol/mg protein
- inhibition at 10 mg/kg ([2]; mouse, ip, read-out: inhibition of brain sEH activity): ≥ 20%
- levels detected in homogenates of brain tissue ([3]; after AUDA-BE injection, methanol/chloroform extraction): not
Structure (SMILES): CCCCOC(=O)CCCCCCCCCCCNC(=O)NC12CC3CC(CC(C3)C1)C2 [AUDA-BE, 12-(3-adamantane-1-yl-ureido)-dodecanoic acid butyl ester]
- adverse effects during the 24-hour period after drug administration ([1]; 10 or 40 mg/kg doses): No apparent adverse effects
- detection of parent drug in plasma ([1]; AUDA-BE 10 mg/kg intraperitoneal): only the metabolites AUDA and AUBA were detected
- infarct size after 2-hour MCAO (C57Bl/6 mice; 10 mg/kg intraperitoneally 1 hour before (pre)): 20±5%
- infarct size after 2-hour MCAO (C57Bl/6 mice; 10 mg/kg intraperitoneally at the time of reperfusion (post)): 16±6%
- reduction of infarct size compared with vehicle (C57Bl/6 mice; 1 hour before (pre)): 40%
- reduction of infarct size compared with vehicle (C57Bl/6 mice; at the time of reperfusion (post)): 50%
- infarct size after MCAO (C57Bl/6 mice; AUDA-BE 10 mg/kg at reperfusion combined with MS-PPOH (0.5 mg/200 mL over 24 hours before MCAO, osmotic minipump)): 34±7%
- crossing the blood brain barrier (BBB) ([3]; mouse, in vivo): capable of crossing the blood brain barrier
